This note sets out measurements from DBAASP.

As usually defined, the MIC is the least concentration at which growth counts as inhibited. Low readings indicate inhibition by little substance, high ones a need for much substance.

Test systems include Bacillus megaterium IBMC; Escherichia coli SBS 363; Fusarium oxysporum; Micrococcus luteus A270; Candida albicans; Saccharomyces cerevisiae; Proteus vulgaris.
Assay in all cases: ≥ marks a high value that may be exact or a test limit, other limits are often not marked, values filed in µg/mL are converted to µM
Test [1] has as its system Bacillus subtilis IFO 3143.
Test [2] relates to Escherichia coli IFO 12734.
The subject of test [3] is Pseudomonas aeruginosa IFO 12582.
The test system of test [4] is Staphylococcus aureus IFO 12732.
For test [5], the system named is Bacillus subtilis KCTC 1918.
Test [6] relates to Candida albicans TIMM 1768.
Test [7] has as its system Proteus vulgaris KCTC 2433.
The subject of test [8] is Saccharomyces cerevisiae KCTC 7296.
Test [9] relates to Salmonella typhimurium KCTC 1926.
For test [10], the system named is Staphylococcus aureus KCTC 1621.
In test [11] the test system is Trichosporon beigelii KCTC 7707.
Test [12] relates to Corynebacterium stationis CIP 101282.
The subject of test [13] is Microbacterium maritypicum CIP 105733T.
Test [14] concerns Staphylococcus aureus SG511.
For test [15], the system named is Vibrio aestuarianus CIP 109791.
Test [16] relates to Vibrio coralliilyticus YB1 CIP 107925.
Test [17] has as its system Vibrio splendidus CIP 107715.
In test [18] the test system is Bacillus cereus ATCC 9193.
Test [19] has as its system Campylobacter jejuni ATCC 33291.
Test [20] concerns Clostridium perfringens ATCC 12915.
Test [21] deals with Pseudomonas aeruginosa ATCC 27853.
For test [22], the system named is Salmonella enterica subsp. enterica serovar Typhimurium ATCC 14028.
Test [23] relates to Staphylococcus aureus ATCC 29213.
Test [24] relates to Streptococcus pyogenes ATCC 19615.
Test [25] deals with Aspergillus flavus KCTC 7375.
In test [26] the test system is Bacillus megaterium KCTC 1096.
The test system of test [27] is Candida albicans KCTC 7121.
The test system of test [28] is Escherichia coli KCTC 1682.
Test [29] deals with Fusarium oxysporum KCTC 6084.
Test [30] has as its system Pseudomonas aeruginosa KCTC 1637.
Test [31] concerns Trichosporon beigelii KCTC 7251.

SMILES strings stand for the structures. Values after ≈ are worked out from the molar mass of the structure shown. Values joined by “and” are separate entries in the source; they are usually repeats but may differ in a detail not shown here. Identical values can stand only once.

Take `CC(C)C[C@H](NC(=O)[C@H](Cc1ccc(O)cc1)NC(=O)[C@H](Cc1cnc[nH]1)NC(=O)[C@@H](NC(=O)[C@H](CC(C)C)NC(=O)[C@H](C)NC(=O)[C@H](C)NC(=O)[C@H](CCCCN)NC(=O)[C@H](C)NC(=O)[C@@H](NC(=O)[C@H](Cc1cnc[nH]1)NC(=O)[C@H](CCCCN)NC(=O)[C@H](C)NC(=O)[C@@H](NC(=O)[C@H](Cc1cnc[nH]1)NC(=O)[C@H](C)NC(=O)[C@H](C)NC(=O)[C@H](CCCCN)NC(=O)[C@H](CCCCN)NC(=O)[C@H](Cc1ccccc1)NC(=O)[C@H](Cc1ccccc1)NC(=O)[C@H](CO)NC(=O)[C@H](C)NC(=O)[C@H](Cc1c[nH]c2ccccc12)NC(=O)[C@H](C)N)C(C)C)C(C)C)[C@@H](C)O)C(=O)O` [AWASFFKKAAHVAKHVAKAALTHYL]: the minimum inhibitory concentration (MIC) in test [1] stood at 0.723 µM (≈ 2 µg/mL); in test [2], 0.723 µM (≈ 2 µg/mL); in test [3] it was 1.45 µM (≈ 4 µg/mL); in test [4], 0.723 µM (≈ 2 µg/mL).

Take `CC[C@H](C)[C@H](NC(=O)CNC(=O)[C@H](CC(C)C)NC(=O)[C@H](CCCN=C(N)N)NC(=O)[C@H](CCCCN)NC(=O)[C@H](Cc1ccccc1)NC(=O)[C@@H](NC(=O)[C@H](CCCCN)NC(=O)[C@H](CCCCN)NC(=O)[C@H](C)N)C(C)C)C(=O)NCC(=O)N[C@@H](C)C(=O)N[C@H](C(=O)N[C@@H](CC(C)C)C(=O)N[C@@H](Cc1c[nH]c2ccccc12)C(=O)N[C@H](C(=O)N[C@@H](CC(C)C)C(=O)N[C@H](C(=O)N[C@H](C(=O)NCC(=O)O)[C@@H](C)O)[C@@H](C)O)C(C)C)C(C)C` [AKKVFKRLGIGAVLWVLTTG]: the MIC in [5] is 3.12 µM (≈ 6.73 µg/mL); in test [6], at least 50 µM; in test [7], 12.5 µM (≈ 27 µg/mL); in test [8], at least 50 µM; in [9] it was 0.78 µM (≈ 1.68 µg/mL); in [10], 3.12 µM (≈ 6.73 µg/mL). In [11], this molecule gave an MIC of at least 50 µM.

Regarding `CC[C@H](C)[C@@H]1NC(=O)CNC(=O)[C@H](CCCCN)NC(=O)[C@H](CCCCN)NC(=O)[C@H](CC(=O)O)NC(=O)[C@@H]2CSSC[C@@H]3NC(=O)[C@H](CO)NC(=O)[C@H](Cc4ccc(O)cc4)NC(=O)[C@H](CO)NC(=O)[C@H](CSSC[C@H](NC(=O)[C@H](Cc4ccccc4)NC(=O)[C@H]([C@@H](C)O)NC(=O)[C@H](CCCCN)NC(=O)CNC(=O)[C@H](CCCN=C(N)N)NC(=O)[C@H](CC(C)C)NC(=O)[C@H](CC(=O)O)NC(=O)[C@H](C)NC(=O)[C@@H](NC(=O)[C@H](C)N)CSSC[C@@H](C(=O)N[C@@H](CCCN=C(N)N)C(N)=O)NC(=O)CNC3=O)C(=O)N[C@@H](CCCN=C(N)N)C(=O)N[C@@H](CC(C)C)C(=O)N[C@@H](Cc3ccccc3)C(=O)N[C@@H](CCCCN)C(=O)N[C@@H](CO)C(=O)N[C@@H](Cc3ccc(O)cc3)C(=O)N2)NC(=O)[C@H](CCCCN)NC(=O)[C@H](CC(=O)O)NC(=O)[C@H](CCCN=C(N)N)NC(=O)[C@H](CCSC)NC(=O)[C@H](CC(C)C)NC(=O)[C@H](CCCN=C(N)N)NC(=O)CNC(=O)[C@H](CCCN=C(N)N)NC1=O` [ACADLRGKTFCRLFKSYCDKKGIRGRLMRDKCSYSCGCR], the MIC stood at 20 µM (≈ 89.8 µg/mL) in the test with Bacillus megaterium IBMC; 10 µM (≈ 44.9 µg/mL) in [12]; 10 µM (≈ 44.9 µg/mL) against Escherichia coli SBS 363; 1.25 µM (≈ 5.61 µg/mL) against Fusarium oxysporum; 20 µM (≈ 89.8 µg/mL) in [13]; 1.25 µM (≈ 5.61 µg/mL) against Micrococcus luteus A270. The minimal inhibitory concentration (MIC) in test [14] worked out at 5 µM (≈ 22.5 µg/mL); in [15] it was 20 µM (≈ 89.8 µg/mL); in test [16], 20 µM (≈ 89.8 µg/mL); in test [17], 20 µM (≈ 89.8 µg/mL).

As for `CC[C@H](C)[C@@H]1NC(=O)[C@H](CC(=O)O)NC(=O)[C@H](C(C)C)NC(=O)[C@H](CO)NC(=O)[C@@H]2CCCN2C(=O)[C@H](C)NC(=O)[C@H](CCCN=C(N)N)NC(=O)[C@@H]2CSSC[C@@H](C(=O)N[C@@H](CCCCN)C(=O)N[C@@H](Cc3c[nH]c4ccccc34)C(=O)N[C@@H](C)C(=O)N3CCC[C@H]3C(=O)N[C@@H](CO)C(=O)N[C@@H](CO)C(=O)O)NC(=O)[C@@H]3CSSC[C@H](NC(=O)[C@H](C)NC(=O)[C@H](CC(C)C)NC(=O)[C@@H](NC(=O)[C@@H](N)CC(=O)O)[C@@H](C)O)C(=O)N[C@@H](CCCN=C(N)N)C(=O)N[C@@H](CCC(N)=O)C(=O)N[C@@H](CO)C(=O)N[C@@H](Cc4cnc[nH]4)C(=O)NCC(=O)N[C@@H](CO)C(=O)N[C@@H](CSSC[C@H](NC(=O)[C@H]([C@@H](C)O)NC(=O)CNC1=O)C(=O)N[C@@H](CCCN=C(N)N)C(=O)NCC(=O)NCC(=O)N[C@@H](CCCCN)C(=O)N[C@@H](CC(C)C)C(=O)N[C@@H](CCCCN)C(=O)N3)C(=O)N[C@@H](CO)C(=O)N[C@@H](Cc1ccccc1)C(=O)N[C@@H](C(C)C)C(=O)N[C@@H](C)C(=O)N2` [DTLACRQSHGSCSFVACRAPSVDIGTCRGGKLKCCKWAPSS], the MIC in test [18] is 29.9 µM (≈ 128 µg/mL); in test [19], 14.9 µM (≈ 63.9 µg/mL); against Candida albicans, 1.87 µM (≈ 7.99 µg/mL); in test [20] it was 1.87 µM (≈ 7.99 µg/mL); in [21], above 29.9 µM; against Saccharomyces cerevisiae, 1.87 µM (≈ 7.99 µg/mL). Moreover, the minimum inhibitory concentration (MIC) in test [22] is > 29.9 µM and 59.7 µM; in test [23], > 29.9 µM and 59.7 µM; in test [24] it was 14.9 µM (≈ 63.9 µg/mL).

Consider `CC[C@H](C)[C@H](NC(=O)[C@H](CCCCN)NC(=O)[C@H](CCCCN)NC(=O)[C@H](Cc1ccccc1)NC(=O)[C@H](CC(C)C)NC(=O)[C@H](CCCCN)NC(=O)[C@H](Cc1c[nH]c2ccccc12)NC(=O)[C@@H](N)CCCCN)C(=O)N1CCC[C@H]1C(=O)N[C@@H](CCCCN)C(=O)N[C@@H](Cc1ccccc1)C(=O)N[C@@H](CC(C)C)C(=O)N[C@@H](Cc1cnc[nH]1)C(=O)N[C@@H](CC(C)C)C(N)=O` [KWKLFKKIPKFLHL], for which the minimal inhibitory concentration (MIC) in test [25] was at least 100 µM; in test [26], 3.12 µM (≈ 5.7 µg/mL); in test [5], 1.56 µM (≈ 2.85 µg/mL); in test [27], at least 100 µM; in [28], 6.25 µM (≈ 11.4 µg/mL); in [29] it was at least 100 µM. For the same molecule, the minimal inhibitory concentration (MIC) in the test on Proteus vulgaris is 3.12 µM (≈ 5.7 µg/mL); in test [30], 6.25 µM (≈ 11.4 µg/mL); in test [10] it was 6.25 µM (≈ 11.4 µg/mL); in [31], at least 100 µM.
